{
  "source": "ChEMBL document CHEMBL4340560",
  "about": "“Design and synthesis of novel 1-phenyl-3-(5-(pyrimidin-4-ylthio)-1,3,4-thiadiazol- 2-yl)urea derivatives with potent anti-CML activity throughout PI3K/AKT signaling pathway” (Bioorg Med Chem Lett, 2019)",
  "key": {"[1]": {"test_system": "K562", "test": "Antiproliferative activity against human K562 cells assessed as inhibition of cell viability incubated for 72 hrs by real time live-cell imaging technique", "format": "functional, cell-based", "conditions": "K562, 72 h"}, "[2]": {"target": "Cellular tumor antigen p53 (Homo sapiens) (UniProt P04637)", "sequence (P04637 whole entry, looked up)": "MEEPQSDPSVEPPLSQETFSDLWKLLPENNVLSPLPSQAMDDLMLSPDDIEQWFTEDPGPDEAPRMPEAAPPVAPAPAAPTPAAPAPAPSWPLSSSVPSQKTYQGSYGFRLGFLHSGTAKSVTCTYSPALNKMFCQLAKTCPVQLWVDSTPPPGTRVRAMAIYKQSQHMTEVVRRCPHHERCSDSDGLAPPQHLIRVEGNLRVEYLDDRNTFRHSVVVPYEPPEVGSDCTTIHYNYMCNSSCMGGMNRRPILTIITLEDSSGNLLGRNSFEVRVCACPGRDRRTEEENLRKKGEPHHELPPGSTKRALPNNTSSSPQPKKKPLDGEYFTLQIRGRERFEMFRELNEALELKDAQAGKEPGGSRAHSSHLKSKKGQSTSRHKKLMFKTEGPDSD", "test": "Induction of p53 phosphorylation at S392, S46, S15 residues in human K562 cells up to 10 uM incubated for 48 hrs by human phospho-kinase array", "format": "cell-based"}, "[3]": {"target": "Protein-tyrosine kinase 2-beta (Homo sapiens) (UniProt Q14289)", "test": "Inhibition of PYK2 phosphorylation in human K562 cells up to 10 uM incubated for 48 hrs by human phospho-kinase array", "format": "cell-based"}, "[4]": {"test_system": "K562", "test": "Induction of apoptosis in human K562 cells assessed as increase in apoptotic cells at 10 uM incubated for 24 to 48 hrs by Caspase-3/7 reagent-based fluorescence assay", "format": "functional, cell-based"}, "[5]": {"test_system": "K562", "test": "Inhibition of PI3K/Akt signaling in human K562 cells assessed as reduction in p70S6K phosphorylation at T421/S424 residues up to 10 uM incubated for 48 hrs by human phospho-kinase array", "format": "cell-based"}, "[6]": {"test_system": "K562", "test": "Inhibition of MAPK signalling in human K562 cells assessed as effect on p38 phosphorylation up to 10 uM incubated for 48 hrs by human phospho-kinase array", "format": "cell-based"}, "[7]": {"test_system": "K562", "test": "Inhibition of PI3K/Akt signaling in human K562 cells assessed as reduction in GSK3alpha/beta phosphorylation at S21/S9 residues up to 10 uM incubated for 48 hrs by human phospho-kinase array", "format": "cell-based"}, "[8]": {"target": "Proto-oncogene tyrosine-protein kinase Src (Homo sapiens) (UniProt P12931)", "sequence (P12931 2-536 limits assumed)": "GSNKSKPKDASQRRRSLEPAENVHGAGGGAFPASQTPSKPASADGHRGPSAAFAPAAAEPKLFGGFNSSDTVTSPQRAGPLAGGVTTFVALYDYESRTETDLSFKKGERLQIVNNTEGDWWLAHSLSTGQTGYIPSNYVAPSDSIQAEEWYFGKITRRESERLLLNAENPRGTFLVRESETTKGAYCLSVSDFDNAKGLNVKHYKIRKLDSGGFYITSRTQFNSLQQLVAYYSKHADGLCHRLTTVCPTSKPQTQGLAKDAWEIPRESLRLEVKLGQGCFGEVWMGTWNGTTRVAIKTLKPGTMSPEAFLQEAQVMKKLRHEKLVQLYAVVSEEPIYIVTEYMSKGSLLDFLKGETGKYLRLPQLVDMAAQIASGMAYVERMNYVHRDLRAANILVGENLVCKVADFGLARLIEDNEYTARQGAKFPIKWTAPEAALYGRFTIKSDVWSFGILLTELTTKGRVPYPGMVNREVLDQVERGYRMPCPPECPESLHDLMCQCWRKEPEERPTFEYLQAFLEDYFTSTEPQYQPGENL", "test": "Inhibition of SRC phosphorylation in human K562 cells up to 10 uM incubated for 48 hrs by human phospho-kinase array", "format": "cell-based"}, "[9]": {"target": "Cyclin-dependent kinase inhibitor 1B (Homo sapiens) (UniProt P46527)", "sequence (P46527 whole entry)": "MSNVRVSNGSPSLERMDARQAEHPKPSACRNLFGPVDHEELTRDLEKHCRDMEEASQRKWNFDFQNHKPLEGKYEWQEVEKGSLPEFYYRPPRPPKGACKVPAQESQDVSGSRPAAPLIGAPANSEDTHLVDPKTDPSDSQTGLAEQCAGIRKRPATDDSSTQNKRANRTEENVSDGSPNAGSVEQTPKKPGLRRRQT", "test": "Induction of p27 phosphorylation at T198 residues in human K562 cells up to 10 uM incubated for 48 hrs by human phospho-kinase array", "format": "cell-based"}, "[10]": {"target": "Proline-rich AKT1 substrate 1 (Homo sapiens) (UniProt Q96B36)", "test": "Inhibition of PRAS40 phosphorylation at T246 residue in human K562 cells up to 10 uM incubated for 48 hrs by human phospho-kinase array", "format": "cell-based"}, "[11]": {"target": "Tyrosine-protein kinase Lck (Homo sapiens) (UniProt P06239)", "test": "Inhibition of LCK phosphorylation in human K562 cells up to 10 uM incubated for 48 hrs by human phospho-kinase array", "format": "cell-based"}, "[12]": {"test_system": "K562", "test": "Inhibition of STAT signalling in human K562 cells up to 10 uM incubated for 48 hrs by human phospho-kinase array", "format": "cell-based"}, "[13]": {"test_system": "K562", "test": "Inhibition of MAPK signalling in human K562 cells assessed as effect on HSP27 phosphorylation up to 10 uM incubated for 48 hrs by human phospho-kinase array", "format": "cell-based"}, "[14]": {"test_system": "K562", "test": "Inhibition of PI3K/Akt signaling in human K562 cells assessed as reduction in mTOR phosphorylation at S2448 residues up to 10 uM incubated for 48 hrs by human phospho-kinase array", "format": "cell-based"}, "[15]": {"test_system": "K562", "test": "Inhibition of MAPK signalling in human K562 cells assessed as effect on JNK phosphorylation up to 10 uM incubated for 48 hrs by human phospho-kinase array", "format": "cell-based"}, "[16]": {"target": "Serine/threonine-protein kinase AKT (Homo sapiens) (UniProt P31751+Q9Y243+P31749)", "sequence (P31749 whole entry, looked up)": "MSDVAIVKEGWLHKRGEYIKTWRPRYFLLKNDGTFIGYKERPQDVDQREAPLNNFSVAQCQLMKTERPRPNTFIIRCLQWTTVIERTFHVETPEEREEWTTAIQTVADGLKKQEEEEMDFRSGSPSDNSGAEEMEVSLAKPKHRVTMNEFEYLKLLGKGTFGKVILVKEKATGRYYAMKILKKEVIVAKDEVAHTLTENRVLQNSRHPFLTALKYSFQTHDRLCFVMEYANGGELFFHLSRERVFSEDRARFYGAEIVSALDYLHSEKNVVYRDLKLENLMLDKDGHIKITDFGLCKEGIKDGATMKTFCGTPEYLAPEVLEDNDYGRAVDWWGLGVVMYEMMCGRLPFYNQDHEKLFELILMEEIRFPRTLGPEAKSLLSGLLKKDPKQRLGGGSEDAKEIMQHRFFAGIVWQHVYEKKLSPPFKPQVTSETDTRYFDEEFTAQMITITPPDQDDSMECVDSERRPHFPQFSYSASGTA", "sequence (P31751 whole entry, looked up)": "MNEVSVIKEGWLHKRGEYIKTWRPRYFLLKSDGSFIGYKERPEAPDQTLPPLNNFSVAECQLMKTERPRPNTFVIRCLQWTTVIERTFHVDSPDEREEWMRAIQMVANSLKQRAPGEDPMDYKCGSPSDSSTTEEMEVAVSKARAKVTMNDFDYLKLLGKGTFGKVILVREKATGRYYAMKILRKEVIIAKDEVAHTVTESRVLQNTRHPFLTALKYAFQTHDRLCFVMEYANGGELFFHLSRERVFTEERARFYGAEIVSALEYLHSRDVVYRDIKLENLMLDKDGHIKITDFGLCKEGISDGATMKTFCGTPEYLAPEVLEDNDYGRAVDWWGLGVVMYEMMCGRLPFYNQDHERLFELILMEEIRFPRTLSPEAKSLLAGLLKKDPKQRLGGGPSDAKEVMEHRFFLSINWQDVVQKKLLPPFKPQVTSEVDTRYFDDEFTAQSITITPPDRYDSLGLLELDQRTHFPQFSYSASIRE", "sequence (Q9Y243 whole entry, looked up)": "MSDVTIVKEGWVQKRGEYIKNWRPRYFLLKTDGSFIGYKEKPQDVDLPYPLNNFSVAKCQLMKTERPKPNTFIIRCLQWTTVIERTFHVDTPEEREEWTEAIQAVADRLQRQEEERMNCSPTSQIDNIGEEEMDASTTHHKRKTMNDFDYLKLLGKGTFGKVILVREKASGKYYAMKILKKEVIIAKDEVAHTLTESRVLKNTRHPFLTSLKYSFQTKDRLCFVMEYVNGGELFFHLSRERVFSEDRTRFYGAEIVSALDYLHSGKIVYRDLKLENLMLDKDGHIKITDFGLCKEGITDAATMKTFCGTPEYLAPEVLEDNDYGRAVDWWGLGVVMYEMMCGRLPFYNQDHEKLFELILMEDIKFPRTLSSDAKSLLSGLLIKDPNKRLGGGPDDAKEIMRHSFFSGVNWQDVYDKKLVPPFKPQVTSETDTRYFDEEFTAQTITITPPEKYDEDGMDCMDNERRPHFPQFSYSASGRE", "test": "Inhibition of AKT1/2/3 phosphorylation (S473/T308 residues) in human K562 cells up to 10 uM incubated for 48 hrs by human phospho-kinase array", "format": "cell-based"}, "[17]": {"test_system": "K562", "test": "Inhibition of RAF/MEK/ERK signalling n human K562 cells assessed as reduction in RSK1/2/3 phosphorylation at S380/S386/S377 residues up to 10 uM incubated for 48 hrs by human phospho-kinase array", "format": "cell-based"}, "[18]": {"test_system": "K562", "test": "Inhibition of RAF/MEK/ERK signalling n human K562 cells assessed as reduction in ERK1/2 phosphorylation at T202/Y204, T185/Y187 residues up to 10 uM incubated for 48 hrs by human phospho-kinase array", "format": "cell-based"}, "[19]": {"target": "Serine/threonine-protein kinase WNK1 (Homo sapiens) (UniProt Q9H4A3)", "sequence (Q9H4A3 whole entry, looked up)": "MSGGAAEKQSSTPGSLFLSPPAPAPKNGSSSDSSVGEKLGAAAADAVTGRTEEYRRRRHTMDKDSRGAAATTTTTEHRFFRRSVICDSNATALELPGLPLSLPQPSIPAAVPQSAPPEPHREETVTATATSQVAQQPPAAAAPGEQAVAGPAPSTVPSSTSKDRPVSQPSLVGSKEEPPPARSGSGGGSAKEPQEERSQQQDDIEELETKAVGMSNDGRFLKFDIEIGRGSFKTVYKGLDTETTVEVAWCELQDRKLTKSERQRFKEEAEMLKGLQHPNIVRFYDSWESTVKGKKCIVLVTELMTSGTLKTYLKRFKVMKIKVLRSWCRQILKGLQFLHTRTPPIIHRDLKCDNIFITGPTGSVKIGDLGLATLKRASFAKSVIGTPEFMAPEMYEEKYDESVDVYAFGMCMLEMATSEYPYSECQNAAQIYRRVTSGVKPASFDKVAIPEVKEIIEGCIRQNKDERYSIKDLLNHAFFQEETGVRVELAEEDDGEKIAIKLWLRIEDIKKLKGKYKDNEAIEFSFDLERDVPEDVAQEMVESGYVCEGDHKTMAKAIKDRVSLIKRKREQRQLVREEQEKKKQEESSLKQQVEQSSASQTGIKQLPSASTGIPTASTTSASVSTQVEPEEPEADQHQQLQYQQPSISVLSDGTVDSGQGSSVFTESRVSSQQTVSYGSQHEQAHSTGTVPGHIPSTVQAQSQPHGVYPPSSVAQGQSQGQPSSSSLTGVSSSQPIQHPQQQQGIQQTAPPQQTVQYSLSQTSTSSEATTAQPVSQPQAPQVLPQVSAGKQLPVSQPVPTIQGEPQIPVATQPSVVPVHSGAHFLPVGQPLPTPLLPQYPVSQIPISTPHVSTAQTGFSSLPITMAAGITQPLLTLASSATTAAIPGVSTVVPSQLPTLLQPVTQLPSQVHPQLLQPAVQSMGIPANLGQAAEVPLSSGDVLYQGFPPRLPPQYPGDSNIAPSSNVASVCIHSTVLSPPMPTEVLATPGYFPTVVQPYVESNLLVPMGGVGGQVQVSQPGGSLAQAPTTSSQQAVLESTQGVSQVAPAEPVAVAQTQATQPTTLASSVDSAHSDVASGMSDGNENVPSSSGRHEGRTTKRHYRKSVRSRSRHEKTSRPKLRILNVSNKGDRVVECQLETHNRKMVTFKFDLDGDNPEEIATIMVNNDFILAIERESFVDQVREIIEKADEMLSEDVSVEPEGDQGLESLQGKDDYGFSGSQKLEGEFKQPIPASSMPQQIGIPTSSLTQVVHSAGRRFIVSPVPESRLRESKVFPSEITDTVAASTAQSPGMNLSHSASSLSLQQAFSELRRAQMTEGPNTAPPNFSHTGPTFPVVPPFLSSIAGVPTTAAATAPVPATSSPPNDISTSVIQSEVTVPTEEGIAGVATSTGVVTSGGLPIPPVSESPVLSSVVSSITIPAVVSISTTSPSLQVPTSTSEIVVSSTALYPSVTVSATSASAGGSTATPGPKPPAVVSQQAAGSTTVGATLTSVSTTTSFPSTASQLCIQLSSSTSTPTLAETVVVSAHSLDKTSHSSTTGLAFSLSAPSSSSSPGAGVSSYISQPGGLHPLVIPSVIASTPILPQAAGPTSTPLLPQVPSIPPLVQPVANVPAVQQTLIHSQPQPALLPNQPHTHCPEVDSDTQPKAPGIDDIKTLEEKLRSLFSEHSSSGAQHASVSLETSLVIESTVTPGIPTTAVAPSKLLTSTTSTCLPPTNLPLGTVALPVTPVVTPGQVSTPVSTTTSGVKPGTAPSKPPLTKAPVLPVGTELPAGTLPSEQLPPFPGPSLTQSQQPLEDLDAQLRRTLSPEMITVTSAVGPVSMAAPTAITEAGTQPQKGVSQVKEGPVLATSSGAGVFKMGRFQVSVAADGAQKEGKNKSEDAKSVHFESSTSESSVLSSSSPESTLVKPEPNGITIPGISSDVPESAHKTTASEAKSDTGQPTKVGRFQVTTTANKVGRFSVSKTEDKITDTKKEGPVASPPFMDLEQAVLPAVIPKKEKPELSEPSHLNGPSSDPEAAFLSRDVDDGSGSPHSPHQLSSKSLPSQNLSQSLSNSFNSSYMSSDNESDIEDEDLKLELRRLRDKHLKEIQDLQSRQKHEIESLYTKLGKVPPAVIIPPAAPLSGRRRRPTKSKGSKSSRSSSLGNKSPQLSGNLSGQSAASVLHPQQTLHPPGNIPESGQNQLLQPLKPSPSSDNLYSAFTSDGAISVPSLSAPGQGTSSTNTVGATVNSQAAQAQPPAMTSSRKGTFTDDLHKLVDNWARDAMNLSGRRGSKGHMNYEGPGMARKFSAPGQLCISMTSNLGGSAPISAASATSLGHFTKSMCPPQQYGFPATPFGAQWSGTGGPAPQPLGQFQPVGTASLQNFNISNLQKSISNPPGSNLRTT", "test": "Inhibition of WNK1 phosphorylation at T60 residue in human K562 cells up to 10 uM incubated for 48 hrs by human phospho-kinase array", "format": "cell-based"}, "[20]": {"test_system": "K562", "test": "Induction of apoptosis in human K562 cells assessed as increase in apoptotic cells at 10 uM incubated for 48 hrs by Caspase-3/7 reagent-based fluorescence assay", "format": "functional, cell-based"}},
  "note": "pIC50: −log10 of the molar value. Calls of active or inactive are those of the source. The calls are words filed in the database; no cut-off is given here.",
  "data": [
    {"smiles": "O=C(Nc1ccc(Cl)c(C(F)(F)F)c1)Nc1nnc(Sc2cc(NCCCN3CCOCC3)ncn2)s1", "values": [
      {"measurement": "pIC50", "setting": "[1]", "value": 6.92}
    ]},
    {"smiles": "O=C(Nc1ccc(C(F)(F)F)cc1)Nc1nnc(Sc2cc(NCCCN3CCOCC3)ncn2)s1", "values": [
      {"measurement": "Activity", "setting": "[2]", "value": "Active"},
      {"measurement": "inhibition", "setting": "[3]", "value": "Active"},
      {"measurement": "Activity", "setting": "[4]", "value": "Active"},
      {"measurement": "inhibition", "setting": "[5]", "value": "Active"},
      {"measurement": "inhibition", "setting": "[6]", "value": "Active"},
      {"measurement": "inhibition", "setting": "[7]", "value": "Active"},
      {"measurement": "inhibition", "setting": "[8]", "value": "Active"},
      {"measurement": "Activity", "setting": "[9]", "value": "Active"},
      {"measurement": "inhibition", "setting": "[10]", "value": "Active"},
      {"measurement": "inhibition", "setting": "[11]", "value": "Active"},
      {"measurement": "pIC50", "setting": "[1]", "value": 7.42},
      {"measurement": "inhibition", "setting": "[12]", "value": "Active"},
      {"measurement": "inhibition", "setting": "[13]", "value": "Active"},
      {"measurement": "inhibition", "setting": "[14]", "value": "Active"},
      {"measurement": "inhibition", "setting": "[15]", "value": "Active"},
      {"measurement": "inhibition", "setting": "[16]", "value": "Active"},
      {"measurement": "inhibition", "setting": "[17]", "value": "Active"},
      {"measurement": "inhibition", "setting": "[18]", "value": "Active"},
      {"measurement": "inhibition", "setting": "[19]", "value": "Active"}
    ]},
    {"smiles": "O=C(Nc1ccc(Cl)c(C(F)(F)F)c1)Nc1nnc(Sc2cc(OCCCN3CCOCC3)ncn2)s1", "values": [
      {"measurement": "pIC50", "setting": "[1]", "value": 6.82}
    ]},
    {"smiles": "CCN(CC)CCCNc1cc(Sc2nnc(NC(=O)Nc3ccc(Cl)c(C(F)(F)F)c3)s2)ncn1", "values": [
      {"measurement": "pIC50", "setting": "[1]", "value": 6.55}
    ]},
    {"smiles": "Cc1ccc(NC(=O)Nc2nnc(Sc3cc(OCCCN4CCOCC4)ncn3)s2)cc1", "values": [
      {"measurement": "pIC50", "setting": "[1]", "value": 7.11}
    ]},
    {"smiles": "Cc1ccc(NC(=O)c2ccc(CN3CCN(C)CC3)cc2)cc1Nc1nccc(-c2cccnc2)n1", "note": "[IMATINIB]", "values": [
      {"measurement": "pIC50", "setting": "[1]", "value": 6.85},
      {"measurement": "Activity", "setting": "[20]", "value": "Active"}
    ]},
    {"smiles": "CCN(CC)CCCNc1cc(Sc2nnc(NC(=O)Nc3ccc(C)cc3)s2)ncn1", "values": [
      {"measurement": "pIC50", "setting": "[1]", "value": 7.85}
    ]},
    {"smiles": "O=C(Nc1ccc(Cl)cc1)Nc1nnc(Sc2cc(NCCCN3CCOCC3)ncn2)s1", "values": [
      {"measurement": "pIC50", "setting": "[1]", "value": 6.96}
    ]},
    {"smiles": "Cc1ccc(NC(=O)Nc2nnc(Sc3cc(NCCCN4CCOCC4)ncn3)s2)cc1Cl", "values": [
      {"measurement": "pIC50", "setting": "[1]", "value": 7.46}
    ]},
    {"smiles": "COc1cccc(NC(=O)Nc2nnc(Sc3cc(NCCCN4CCOCC4)ncn3)s2)c1", "values": [
      {"measurement": "pIC50", "setting": "[1]", "value": 6.16}
    ]},
    {"smiles": "Cc1ccc(NC(=O)Nc2nnc(Sc3cc(NCCCN4CCOCC4)ncn3)s2)cc1", "values": [
      {"measurement": "pIC50", "setting": "[1]", "value": 7.25}
    ]}
  ]
}
